According to the NIST ThermoML archive (doi:10.1016/j.fluid.2015.03.015):

Experiment: refractive index (other wavelength) (dimensionless); xn = mol fraction of the nth substance listed

CCCC(C)O (stereo not drawn) [pentan-2-ol] + CCCCCCCC[n+]1ccn(C)c1.F[B-](F)(F)F
Minimum deviation
Settings	refractive index
284.59 K, Liquid mixture 1, Wavelength=623.8 nm, x2 = 0.01	1.4096
284.59 K, Liquid mixture 2, Wavelength=623.8 nm, x2 = 0.347	1.4237
285.29 K, Liquid mixture 1, Wavelength=623.8 nm, x2 = 0.01	1.4093
285.29 K, Liquid mixture 2, Wavelength=623.8 nm, x2 = 0.338	1.4232
286.13 K, Liquid mixture 1, Wavelength=623.8 nm, x2 = 0.012	1.4091
286.13 K, Liquid mixture 2, Wavelength=623.8 nm, x2 = 0.332	1.4227
286.89 K, Liquid mixture 1, Wavelength=623.8 nm, x2 = 0.013	1.4088
286.89 K, Liquid mixture 2, Wavelength=623.8 nm, x2 = 0.319	1.422
287.65 K, Liquid mixture 1, Wavelength=623.8 nm, x2 = 0.015	1.4086
287.65 K, Liquid mixture 2, Wavelength=623.8 nm, x2 = 0.315	1.4216
288.25 K, Liquid mixture 1, Wavelength=623.8 nm, x2 = 0.016	1.4084
288.25 K, Liquid mixture 2, Wavelength=623.8 nm, x2 = 0.307	1.4211
288.92 K, Liquid mixture 1, Wavelength=623.8 nm, x2 = 0.016	1.4081
288.92 K, Liquid mixture 2, Wavelength=623.8 nm, x2 = 0.293	1.4204
289.54 K, Liquid mixture 1, Wavelength=623.8 nm, x2 = 0.019	1.408
289.54 K, Liquid mixture 2, Wavelength=623.8 nm, x2 = 0.288	1.42
290.07 K, Liquid mixture 1, Wavelength=623.8 nm, x2 = 0.021	1.4079
290.07 K, Liquid mixture 2, Wavelength=623.8 nm, x2 = 0.279	1.4195
290.61 K, Liquid mixture 1, Wavelength=623.8 nm, x2 = 0.021	1.4077
290.61 K, Liquid mixture 2, Wavelength=623.8 nm, x2 = 0.271	1.419
291.08 K, Liquid mixture 1, Wavelength=623.8 nm, x2 = 0.023	1.4076
291.08 K, Liquid mixture 2, Wavelength=623.8 nm, x2 = 0.264	1.4186
291.55 K, Liquid mixture 1, Wavelength=623.8 nm, x2 = 0.025	1.4075
291.55 K, Liquid mixture 2, Wavelength=623.8 nm, x2 = 0.255	1.4181
292.02 K, Liquid mixture 1, Wavelength=623.8 nm, x2 = 0.027	1.4074
292.02 K, Liquid mixture 2, Wavelength=623.8 nm, x2 = 0.247	1.4176
292.46 K, Liquid mixture 1, Wavelength=623.8 nm, x2 = 0.03	1.4074
292.46 K, Liquid mixture 2, Wavelength=623.8 nm, x2 = 0.235	1.417
292.84 K, Liquid mixture 1, Wavelength=623.8 nm, x2 = 0.031	1.4073
292.84 K, Liquid mixture 2, Wavelength=623.8 nm, x2 = 0.229	1.4166
293.15 K, Liquid mixture 1, Wavelength=623.8 nm, x2 = 0.035	1.4074
293.15 K, Liquid mixture 2, Wavelength=623.8 nm, x2 = 0.221	1.4162
293.41 K, Liquid mixture 1, Wavelength=623.8 nm, x2 = 0.037	1.4074
293.41 K, Liquid mixture 2, Wavelength=623.8 nm, x2 = 0.211	1.4157
293.63 K, Liquid mixture 1, Wavelength=623.8 nm, x2 = 0.04	1.4075
293.63 K, Liquid mixture 2, Wavelength=623.8 nm, x2 = 0.206	1.4154
293.78 K, Liquid mixture 1, Wavelength=623.8 nm, x2 = 0.041	1.4075
293.78 K, Liquid mixture 2, Wavelength=623.8 nm, x2 = 0.202	1.4152
293.89 K, Liquid mixture 1, Wavelength=623.8 nm, x2 = 0.044	1.4076
293.89 K, Liquid mixture 2, Wavelength=623.8 nm, x2 = 0.201	1.4151
293.99 K, Liquid mixture 1, Wavelength=623.8 nm, x2 = 0.045	1.4076
293.99 K, Liquid mixture 2, Wavelength=623.8 nm, x2 = 0.197	1.4149
294.09 K, Liquid mixture 1, Wavelength=623.8 nm, x2 = 0.047	1.4077
294.09 K, Liquid mixture 2, Wavelength=623.8 nm, x2 = 0.193	1.4147
294.19 K, Liquid mixture 1, Wavelength=623.8 nm, x2 = 0.048	1.4077
294.19 K, Liquid mixture 2, Wavelength=623.8 nm, x2 = 0.189	1.4145
294.27 K, Liquid mixture 1, Wavelength=623.8 nm, x2 = 0.05	1.4078
294.27 K, Liquid mixture 2, Wavelength=623.8 nm, x2 = 0.188	1.4144
294.35 K, Liquid mixture 1, Wavelength=623.8 nm, x2 = 0.053	1.4079
294.35 K, Liquid mixture 2, Wavelength=623.8 nm, x2 = 0.184	1.4142
294.42 K, Liquid mixture 1, Wavelength=623.8 nm, x2 = 0.054	1.4079
294.42 K, Liquid mixture 2, Wavelength=623.8 nm, x2 = 0.18	1.414
294.49 K, Liquid mixture 1, Wavelength=623.8 nm, x2 = 0.056	1.408
294.49 K, Liquid mixture 2, Wavelength=623.8 nm, x2 = 0.175	1.4138
294.54 K, Liquid mixture 1, Wavelength=623.8 nm, x2 = 0.058	1.4081
294.54 K, Liquid mixture 2, Wavelength=623.8 nm, x2 = 0.174	1.4137
294.6 K, Liquid mixture 1, Wavelength=623.8 nm, x2 = 0.06	1.4082
294.6 K, Liquid mixture 2, Wavelength=623.8 nm, x2 = 0.172	1.4136
294.64 K, Liquid mixture 1, Wavelength=623.8 nm, x2 = 0.063	1.4083
294.64 K, Liquid mixture 2, Wavelength=623.8 nm, x2 = 0.168	1.4134
294.68 K, Liquid mixture 1, Wavelength=623.8 nm, x2 = 0.065	1.4084
294.68 K, Liquid mixture 2, Wavelength=623.8 nm, x2 = 0.166	1.4133
294.73 K, Liquid mixture 1, Wavelength=623.8 nm, x2 = 0.067	1.4085
294.73 K, Liquid mixture 2, Wavelength=623.8 nm, x2 = 0.162	1.4131
294.77 K, Liquid mixture 1, Wavelength=623.8 nm, x2 = 0.069	1.4086
294.77 K, Liquid mixture 2, Wavelength=623.8 nm, x2 = 0.157	1.4129
294.8 K, Liquid mixture 1, Wavelength=623.8 nm, x2 = 0.071	1.4087
294.8 K, Liquid mixture 2, Wavelength=623.8 nm, x2 = 0.153	1.4127
294.83 K, Liquid mixture 1, Wavelength=623.8 nm, x2 = 0.073	1.4088
294.83 K, Liquid mixture 2, Wavelength=623.8 nm, x2 = 0.149	1.4125
294.87 K, Liquid mixture 1, Wavelength=623.8 nm, x2 = 0.077	1.409
294.87 K, Liquid mixture 2, Wavelength=623.8 nm, x2 = 0.145	1.4123
294.88 K, Liquid mixture 1, Wavelength=623.8 nm, x2 = 0.079	1.4091
294.88 K, Liquid mixture 2, Wavelength=623.8 nm, x2 = 0.143	1.4122
294.89 K, Liquid mixture 1, Wavelength=623.8 nm, x2 = 0.083	1.4093
294.89 K, Liquid mixture 2, Wavelength=623.8 nm, x2 = 0.141	1.4121
294.9 K, Liquid mixture 1, Wavelength=623.8 nm, x2 = 0.085	1.4094
294.9 K, Liquid mixture 2, Wavelength=623.8 nm, x2 = 0.139	1.412
294.91 K, Liquid mixture 1, Wavelength=623.8 nm, x2 = 0.085	1.4094
294.91 K, Liquid mixture 1, Wavelength=623.8 nm, x2 = 0.087	1.4095
294.91 K, Liquid mixture 2, Wavelength=623.8 nm, x2 = 0.132	1.4117
294.91 K, Liquid mixture 2, Wavelength=623.8 nm, x2 = 0.134	1.4118
294.92 K, Liquid mixture 1, Wavelength=623.8 nm, x2 = 0.088	1.4095
294.92 K, Liquid mixture 1, Wavelength=623.8 nm, x2 = 0.09	1.4096
294.92 K, Liquid mixture 2, Wavelength=623.8 nm, x2 = 0.128	1.4115
294.92 K, Liquid mixture 2, Wavelength=623.8 nm, x2 = 0.13	1.4116
294.93 K, Liquid mixture 1, Wavelength=623.8 nm, x2 = 0.091	1.4097
294.93 K, Liquid mixture 1, Wavelength=623.8 nm, x2 = 0.093	1.4098
294.93 K, Liquid mixture 1, Wavelength=623.8 nm, x2 = 0.097	1.41
294.93 K, Liquid mixture 1, Wavelength=623.8 nm, x2 = 0.099	1.4101
294.93 K, Liquid mixture 2, Wavelength=623.8 nm, x2 = 0.118	1.411
294.93 K, Liquid mixture 2, Wavelength=623.8 nm, x2 = 0.122	1.4112
294.93 K, Liquid mixture 2, Wavelength=623.8 nm, x2 = 0.124	1.4113
294.93 K, Liquid mixture 2, Wavelength=623.8 nm, x2 = 0.126	1.4114

85 kPa, Liquid, Wavelength=632.8 nm, Minimum Deviation
Settings	refractive index
288.19 K, x2 = 0.599	1.4284
288.8 K, x2 = 0.899	1.4331
288.81 K, x2 = 0.798	1.4316
288.98 K, x2 = 0.7	1.4298
289.74 K, x2 = 0.599	1.428
290.84 K, x2 = 0.798	1.4311
290.84 K, x2 = 0.899	1.4326
290.99 K, x2 = 0.7	1.4293
291.3 K, x2 = 0.599	1.4275
292.85 K, x2 = 0.599	1.427
292.89 K, x2 = 0.899	1.432
292.91 K, x2 = 0.798	1.4305
293.05 K, x2 = 0.7	1.4287
293.9 K, x2 = 0.4	1.422
294.42 K, x2 = 0.599	1.4265
294.98 K, x2 = 0.798	1.4299
294.98 K, x2 = 0.899	1.4314
295.13 K, x2 = 0.7	1.4281
295.53 K, x2 = 0.099	1.4101
295.95 K, x2 = 0.4	1.4213
296.02 K, x2 = 0.3	1.4182
296.02 K, x2 = 0.599	1.426
296.13 K, x2 = 0.5	1.4238
297.03 K, x2 = 0.798	1.4293
297.03 K, x2 = 0.899	1.4308
297.19 K, x2 = 0.7	1.4275
297.57 K, x2 = 0.3	1.4177
297.68 K, x2 = 0.5	1.4233
297.86 K, x2 = 0.099	1.4092
298.01 K, x2 = 0.4	1.4207
299.09 K, x2 = 0.3	1.4172
299.11 K, x2 = 0.798	1.4287
299.11 K, x2 = 0.899	1.4303
299.22 K, x2 = 0.2	1.4133
299.22 K, x2 = 0.7	1.4269
299.24 K, x2 = 0.5	1.4229
299.91 K, x2 = 0.099	1.4085
300.06 K, x2 = 0.4	1.4201
300.66 K, x2 = 0.3	1.4167
300.8 K, x2 = 0.2	1.4128
300.8 K, x2 = 0.5	1.4224
302 K, x2 = 0.099	1.4077
302.14 K, x2 = 0.4	1.4194
302.24 K, x2 = 0.3	1.4162
302.34 K, x2 = 0.5	1.4219
302.35 K, x2 = 0.2	1.4122
303.8 K, x2 = 0.3	1.4156
303.88 K, x2 = 0.2	1.4117
304.07 K, x2 = 0.099	1.4069
304.17 K, x2 = 0.4	1.4187
304.17 K, x2 = 0.5	1.4213
305.44 K, x2 = 0.2	1.4111
306.2 K, x2 = 0.099	1.4061
307.01 K, x2 = 0.2	1.4105
